Measurements: patent US6383762B1, “Methods of obtaining compounds that interact with a human serotonin (5-HT2) receptor” (Synaptic Pharmaceutical Corporation, priority 1989, dated 2002)

Columns and labels:
[1] = molecular target: T1, human 5-HT2 receptor (Homo sapiens, UniProt P28223); assay: Radioligand binding to transiently transfected Cos-7 cell membranes; conditions: transiently transfected Cos-7 cells
[2] = molecular target: T1, human 5-HT2 receptor; assay: Saturation analysis of 3H-Ketanserin binding to stably transfected Ltk- cells; parameters: Clone 6B contained the entire coding region for a 5-HT2 receptor; expressed in transfected cells
Experimental: (§1) The total reaction volume was 0.25 ml.
(§2) Subsequent to analysis in transiently transfected cells, the 5-HT2 clone was expressed as a stable transfectant in mouse Ltk^− cells. Further characterization was done on these cells as described above.
(§3) Full saturation analysis was performed on stable cell lines expressing the gene. […] The binding constants were evaluated by computer-assisted nonlinear regression using Accufit (Lundon Software, Chagrin Falls, Ohio). […] Further characterization was accomplished by performing competition experiments for a series of drugs. Analysis of the competition data was accomplished using the computer-assisted nonlinear regression program Accucomp.

[3] = molecular target: T2, cloned human 5-HT2 receptor (Homo sapiens, UniProt P28223); assay: Competition for 3H-Ketanserin binding, cloned human 5-HT2 receptor in stably transfected Ltk- cell membranes; conditions: cloned human 5-HT2 receptor expressed in Ltk- cells; 3H-Ketanserin radioligand
T2 construct: Clone 6B contained the entire coding region for a 5-HT2 receptor; expressed in transfected cells
T2 sequence (P28223 whole entry): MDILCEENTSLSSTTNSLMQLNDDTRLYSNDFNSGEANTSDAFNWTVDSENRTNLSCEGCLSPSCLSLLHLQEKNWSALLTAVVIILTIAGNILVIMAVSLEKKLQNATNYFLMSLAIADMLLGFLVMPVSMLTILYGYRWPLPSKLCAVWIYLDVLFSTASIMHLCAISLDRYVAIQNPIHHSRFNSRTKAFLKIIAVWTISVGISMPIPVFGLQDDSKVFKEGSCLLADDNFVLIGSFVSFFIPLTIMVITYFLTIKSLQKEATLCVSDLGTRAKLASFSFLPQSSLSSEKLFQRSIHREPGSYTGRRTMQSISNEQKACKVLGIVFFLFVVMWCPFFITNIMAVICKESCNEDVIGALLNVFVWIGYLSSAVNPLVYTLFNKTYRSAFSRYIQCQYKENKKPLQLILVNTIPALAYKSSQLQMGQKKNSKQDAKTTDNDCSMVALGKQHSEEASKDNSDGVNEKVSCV
Experimental: as §1, §2
Data were analyzed by computer-assisted analysis (Accufit Competition; Lundon Software; Chagrin Falls, Ohio).
as §3

[4] = molecular target: T3, 5-HT2 receptor in human cortical membranes (Homo sapiens, UniProt P28223); conditions: human cortex; footnote 1 Lyon et al. 1987, footnote 2 Hoyer et al. 1986; cited from earlier work
T3 construct: the 5-HT2 receptor in human cortical membranes; host or cells: human cortical membranes
T3 sequence (P28223 whole entry): as above

[5] = molecular target: T4, 5-HT2 receptor in rat cortical membranes (Rattus norvegicus, UniProt P14842); conditions: rat cortex; Hoyer et al. 1986; cited from earlier work
T4 construct: rather than in rat cortical membranes; host or cells: rat cortical membranes
T4 sequence (P14842 whole entry): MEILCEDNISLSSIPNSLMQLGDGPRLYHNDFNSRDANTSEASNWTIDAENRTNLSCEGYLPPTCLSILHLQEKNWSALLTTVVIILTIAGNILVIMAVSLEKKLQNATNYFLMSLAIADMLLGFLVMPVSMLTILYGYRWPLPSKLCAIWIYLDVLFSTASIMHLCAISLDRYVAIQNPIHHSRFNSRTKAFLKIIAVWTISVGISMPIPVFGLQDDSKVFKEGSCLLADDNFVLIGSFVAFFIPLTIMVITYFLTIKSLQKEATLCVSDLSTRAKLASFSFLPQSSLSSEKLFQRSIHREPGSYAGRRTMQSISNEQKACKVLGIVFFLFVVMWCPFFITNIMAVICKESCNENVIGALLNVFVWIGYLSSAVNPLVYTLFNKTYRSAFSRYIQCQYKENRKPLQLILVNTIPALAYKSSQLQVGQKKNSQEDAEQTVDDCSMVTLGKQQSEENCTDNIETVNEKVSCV

T1 sequence (P28223 whole entry): as the sequence (P28223 whole entry) above

Compound | binding affinity in words [1] | estimated site density [1] | Bmax ([2]; FIG. 4 experiment, stably transfected Ltk- cells) | Bmax ([2]; Ltk- cells transfected with pMO5-6B) | Ki [3] | Ki [4] | Ki [5]
[3H]C([3H])(N1CCC(C(=O)c2ccc(F)cc2)CC1)C([3H])([3H])n1c(=O)[nH]c2ccccc2c1=O [^3H-Ketanserin] | high affinity | 0.95-1.6 pm/mg protein | 0.602 pmole/mg protein | 0.602±0.07 pm/mg protein |  |  | 
CN1C[C@@H](NS(=O)(=O)N(C)C)C[C@@H]2c3cccc4c3c(cn4C)C[C@H]21 [MESULERGINE] |  |  |  |  | 146 ± 5 nM | 158 nM | 
NCCc1c[nH]c2ccc(C(N)=O)cc12 [5-CT] |  |  |  |  | 3030 nM | 813 nM | 20000 nM
